For the assay, the system named is B16F10 melanoma tumors. Kind of assay: Murine melanoma tumor model (B16F10 in C57BL/6 mice). The assay is classed as in vivo. The following applies: for tumor growth: FIG. 14A. Here is the method: Mice were injected with 1×10^5 B16F10 murine melanoma cells murine subcutaneously on the left flank. Once tumors become palpable (approximately 5 days), mice were randomly allocated to receive treatment with either: 20% polyethylene glycol (PEG) in 5% […] (vehicle control for the disclosed HIF-2α stabilizer) and PBS (vehicle control for GM-CSF), 20% PEG and GM-CSF (100 ng per mouse in a 50 μL volume), the disclosed HIF-2α stabilizer (17.5 mg/kg in a 100 μL volume) and PBS, or the disclosed HIF-2α stabilizer and GM-CSF (same doses). The PBS and GM-CSF were administered intratumorally, while the 20% PEG and the disclosed HIF-2α stabilizer were administered intraperitoneally. Mice were treated 3 times per week until tumors reached a size of 20 mm in any dimension (approximately 2.5 weeks), at which point mice were euthanized, in accordance with institutional policy. Tumor diameters were measured 3 times per week with calipers, and tumor volumes were calculated as follows: Tumor volume=0.5×[(large diameter)×(small diameter)^2].
6-8-week-old C57BL/6 mice were injected with 1×10^5 B16F10 murine melanoma cells murine subcutaneously on the left flank. Once tumors become palpable (approximately 5 days), mice were randomly allocated to receive treatment with either: 20% PEG-400 in 5% sucrose (vehicle for disclosed HIF-2α stabilizer) and PBS (vehicle for GM-CSF), 20% PEG-400 and GM-CSF (100 ng per mouse in a 50 μL volume), disclosed HIF-2α stabilizer (17.5 mg/kg mouse weight in a 100 μL volume) and PBS, or the disclosed HIF-2α stabilizer and GM-CSF (same concentrations). The disclosed HIF-2α stabilizer (or the vehicle control) was administered intraperitoneally, while GM-CSF (or the vehicle control) was administered intratumorally. Mice were treated […] 3 times per week until tumors reached a size of 20 mm in any dimension (approximately 2.5 weeks), at which point mice were be euthanized, in accordance with institutional policy. Tumor diameters were measured 3 times per week with calipers, and tumor volumes will be calculated as follows: Tumor volume=0.5×[(large diameter)×(small diameter)^2]. For experiments analyzing the effect of neutralizing sVEGFR-1 in combination with disclosed HIF-2α stabilizer treatment, mice were treated intraperitoneally 3×/week with either disclosed HIF-2α stabilizer or vehicle control, and intratumorally with either 4 μg anti-VEGFR-1 neutralizing antibody (R&D Systems) or 4 μg polyclonal goat IgG isotype control (Santa Cruz Biotechnology) in a 50 μL volume. All protocols were approved by the Ohio State University Animal Care and Use Committee, and mice were treated in accordance with institutional guidelines for animal care.
The ANOVA test was used to compare independent measurements between multiple treatment groups. The data was log-transformed to normalize the variance across groups. P-values were adjusted using the Holm's procedure to conserve the type I error at 0.05 due to the multiple comparisons. For tumor growth data, changes in tumor volume over time were assessed via a longitudinal model. Tumor values were log-transformed, and estimated slopes (changes in tumor volume over time) were calculated with 95% confidence intervals. Estimated differences in tumor volume were calculated by a random-effects regression of the longitudinal data. For all analyses, p≦0.05 was considered statistically significant.
To confirm that the modulation of tumor growth and angiogenesis was due to sVEGFR-1 production in response to the disclosed HIF-2α stabilizer, mice were treated with the disclosed HIF-2α stabilizer in the presence or absence of an sVEGFR-1 neutralizing Ab.
6-8-week-old C57BL/6 mice or SCID mice were injected with 1×10^5 B16F10 murine melanoma cells or 1×10^6 A375 human melanoma cells, respectively, subcutaneously on the left flank. […]

Each structure is given as a SMILES string.

Take `O=C(O)CNC(=O)c1ncc(-c2cccc(F)c2)cc1O` [disclosed HIF-2α stabilizer, {[5-(3-Fluorophenyl)-3-hydroxypyridine-2-carbonyl]amino}acetic acid]: the “tumor growth (tumor volume)” value (FIG. 3, stabilizer 17 mg/kg I.P., GM-CSF 100 ng per mouse I.T., 3 times per week, vs. PBS control) is given as “reduces tumor growth”. For the same compound, the “increase in median survival” value (FIG. 12B, median survival defined as the time to a tumor diameter of 20 mm, 17.5 mg/kg intraperitoneal 3x/week, p=0.023) was 3 days. Further, the “average tumor volumes vs. vehicle controls” value (day 16 of treatment, GM-CSF 100 ng/mouse intratumoral or stabilizer 17.5 mg/kg intraperitoneal, 3x/week, each p<0.001) is listed as “significantly smaller”. In addition, the tumor growth result by setting is: (mice also treated with the anti-sVEGFR-1 neutralizing antibody, p=0.245) “no effect on tumor growth”; (mice treated with an isotype control antibody, p<0.001) “decreased tumor growth”.

For the origin of these results see US8865748B2, “Compounds and compositions for stabilizing hypoxia inducible factor-2 alpha as a method for treating cancer” (Akebia Therapeutics Inc., priority 2011, dated 2014).
